Test results taken from article PMC12386367, “Importin α3 Is Tolerant to Nuclear Localization Signal Chirality” (International Journal of Molecular Sciences, 2025).
Non-standard residues stand in square brackets, D forms with d. Residues, ends and D or L forms follow the SMILES beside them.

Assays:
[1] = target: T1, Impα3 (Homo sapiens, UniProt O00629); test: Isothermal titration calorimetry (ITC) with Impα3; assay type: binding; conditions: Impα3, 50 mM Tris pH 8.0, 25 °C
T1 construct: Human importin α3 isoform (residues 1–521); made in house
T1 sequence (O00629 1-521): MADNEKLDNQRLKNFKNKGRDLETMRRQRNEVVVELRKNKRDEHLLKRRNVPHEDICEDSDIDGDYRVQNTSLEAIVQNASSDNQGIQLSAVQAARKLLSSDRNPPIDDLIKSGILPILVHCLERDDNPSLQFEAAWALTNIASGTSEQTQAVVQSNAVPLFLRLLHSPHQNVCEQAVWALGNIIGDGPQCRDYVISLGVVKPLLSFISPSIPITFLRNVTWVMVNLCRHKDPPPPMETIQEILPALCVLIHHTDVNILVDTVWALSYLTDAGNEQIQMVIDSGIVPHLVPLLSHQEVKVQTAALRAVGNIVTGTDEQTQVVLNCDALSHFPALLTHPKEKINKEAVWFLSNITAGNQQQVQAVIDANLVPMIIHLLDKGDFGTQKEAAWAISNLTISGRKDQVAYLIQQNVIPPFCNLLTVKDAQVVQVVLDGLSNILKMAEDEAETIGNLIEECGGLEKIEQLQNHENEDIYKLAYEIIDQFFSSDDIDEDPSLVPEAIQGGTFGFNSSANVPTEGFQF
Procedure: (§1) Calorimetric titrations for testing the interaction of D-NLS peptides with either Impα3 or ΔImpα3 were carried out in an VP-ITC instrument (Microcal, Northhamptom, MA, USA). The importin species were loaded into the cell calorimeter and the corresponding D-NLS peptide in the syringe in Tris buffer 50 mM, pH 8.0. All experiments were carried out at 25 °C.
(§2) These twenty-nine ITC experiments involved sequential injections of microliter amounts (10 µL) of a stock solution of D-NLS peptide (in a concentration range of 150–200 µM) into the calorimetric cell (1.4 mL); the cell initially contained protein solution (15 µM for either Impα3 or ΔImpα3 in protomer units). To correct for the heat evolved due to the dilution effect for adding the ligand (peptide) solution to the calorimetric cell, an independent experiment was performed, in which the same peptide solution was injected into the calorimetric cell loaded with buffer. After correction for the dilution heat, the isotherm was fitted to a binding model that assumed the existence of a single set of binding sites, by using the software v1.41 provided by the manufacturer.

[2] = target: T2, ∆Impα3 (Homo sapiens, UniProt O00629); test: Biolayer interferometry (BLI) binding to ∆Impα3; conditions: BLItz, ∆Impα3 immobilized via His-tag (0.25 μM), peptide 1–10 μM, 10 × kinetics buffer, 25 °C, error from pseudo-first order fit, at least two repeats, read-out: kon
T2 construct: IBB-depleted species of Impα3 (residues 64–521 of the intact protein); made in house
T2 sequence (O00629 64-521): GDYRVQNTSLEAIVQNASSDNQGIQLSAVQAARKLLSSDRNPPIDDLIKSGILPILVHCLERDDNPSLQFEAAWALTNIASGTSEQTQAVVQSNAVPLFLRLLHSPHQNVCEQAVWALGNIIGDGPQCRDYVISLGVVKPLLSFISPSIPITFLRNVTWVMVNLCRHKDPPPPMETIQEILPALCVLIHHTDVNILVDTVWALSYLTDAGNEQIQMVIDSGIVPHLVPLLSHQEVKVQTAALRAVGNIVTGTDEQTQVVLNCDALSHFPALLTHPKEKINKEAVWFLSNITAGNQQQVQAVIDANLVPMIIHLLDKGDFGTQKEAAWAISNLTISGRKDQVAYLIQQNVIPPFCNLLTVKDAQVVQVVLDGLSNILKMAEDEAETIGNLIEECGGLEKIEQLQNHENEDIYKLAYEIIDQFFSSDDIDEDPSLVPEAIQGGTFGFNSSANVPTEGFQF
Procedure: (§3) The association (kon) and dissociation (koff) rate constants of the binding of D-NLS peptides to either Impα3 or ∆Impα3 were determined by using a BLItz system (ForteBio, Pall, Barcelona, Spain). The buffer used in the experiments was that recommended by the manufacturer. […] The peptide concentrations were in a range from 1 to 10 μM during the association step. The general scheme of the protein association/dissociation reactions in the BLItz system for the D-NLS peptides was as follows: 30 s of initial baseline acquisition with the 10 × kinetics buffer (provided by the manufacturer); 120 s of loading either Impα3 and ∆Impα3 into the biosensor; 30 s of baseline acquisition with the 10 × kinetics buffer; 120 s of association of each peptide to the biosensor (which had been previously loaded with the importin species); and 120 s of monitoring of the dissociation of each peptide from the biosensor. All experiments were carried out at 25 °C.
(§4) Fittings of the BLI sensorgrams was carried out by using KaleidaGraph, as previously described. The interferometry response during the association step, R(t) (measured in response units, RU), and the binding rate, dR(t)/dt, could be used to evaluate the kinetics of the formation of the complex between Impα3/∆Impα3 and each D-NLS, according to:(2) dR/dt=konD-NLSRmax−Rt−koffR(t) where Rmax is proportional to the total concentration of biosensor-bound importin species; and [D-NLS] represents the concentration of the corresponding D-NLS peptide.
(§5) In Equation (2), R(t) is given by:(3) Rt= Req−Reqe^(−kobs t−t0) where Req is the steady-state (or equilibrium) response obtained at infinite time, when dR(t)/dt = 0, and t0 = 180 s is the time at which the association step between biosensor-immobilized Impα3/∆Impα3 and D-NLS in the solution started. We fitted the experimentally obtained R(t) under any condition as:(4) Rt= Req−Reqe^−kobs t−t0−R’eq(t−t0) where R^′eq was included to consider the lineal drift observed at longer times.
(§6) The dissociation process was always fitted to a single exponential, with R(t) given by:(6) Rt=R1 e^(−kofft−t0)−R^″eq(t−t0) where t0 = 300 is the time at which the dissociation of the D-NLS from the biosensor-bound Impα3/∆Impα3 started in our experimental set-up, R1 is the response level when dissociation starts, and the parameter R^″eq considers the linear drift observed at longer times.
(§7) The experiments were repeated at least twice for each peptide with each importin species.

[3] = target: T1, Impα3; test: Biolayer interferometry (BLI) binding to Impα3; conditions: peptide 1–10 μM, 25 °C
Procedure: as §3, §4, §5, §6, §7

[4] = target: T2, ∆Impα3; test: Isothermal titration calorimetry (ITC) with ∆Impα3; assay type: binding; conditions: ∆Impα3, 50 mM Tris pH 8.0, 25 °C
Procedure: as §1, §2

[5] = Translational diffusion NMR (DOSY) of NLS peptides; assay type: physicochemical; conditions: ~100 μM peptide, 50 mM deuterated Tris pH 7.2, 100% D2O, 10 °C
Text: For the four peptides, we measured the experimental value of D for dioxane ranging from (1.2 ± 0.1) × 10^−5 to (1.05 ± 0.02) × 10^−5 cm^2 s^−1 in each solution containing the corresponding peptide; we assumed a hydrodynamic radius of 2.12 Å for dioxane (Table 1) under any condition. […] Furthermore, the values of D were similar for the D- and L-peptides, and the latter were already being described as disordered. Thus, we can conclude that the four D-peptides were monomeric and disordered, like the L-form counterparts, and, then, there was no difference in the hydrodynamic properties of the peptides by changing the enantiomeric nature of the residues.
The NMR spectra were acquired at 10 °C on a Bruker Avance III spectrometer (Bruker GmbH, Mannheim, Germany), equipped with a triple-resonance probe and z-pulse field gradients. All NMR experiments with D-NLS peptides were carried out in 50 mM deuterated Tris buffer (not corrected for isotope effects), pH 7.2. Spectra were calibrated with TSP, by considering pH-dependent changes in its chemical shifts; probe temperature was calibrated with pure methanol.
The typical D-NLS peptide concentrations in DOSY experiments were ~100 μM, and 128 scans were acquired, in which the gradient strength was varied linearly in sixteen steps, between 2 and 95% of the total power of the gradient coil. Measurements of the translational self-diffusion coefficient, D, were performed with the pulsed-gradient spin-echo sequence in the presence of 100% D2O. Details on the experimental conditions and fitting of the resulting curves have been described elsewhere. Gradient strength was calibrated by using the value of D for the residual proton water signal in a sample containing 100% D2O, in a 5 mm tube [23]. Gradient length was 2.5 ms; the time between the two pulse gradients in the sequence was 250 ms; and the recovery delay between the bipolar gradients was 100 μs. The signals from methyl groups between 0.8 and 1.0 ppm were used for peak integration, for all the D-NLS peptides. A final concentration of 1% of dioxane, which was assumed to have a hydrodynamic radius Rh of 2.12 Å [23], was added to the solution of each peptide.

[6] = sequence synthesized in reverse order; ref [38]; cited from earlier work
Text: A few additional conclusions can be drawn from our results, in the context of their relevance for understanding the importance of importin in the regulation of the nucleocytoplasmic transport of cargo proteins. Although we cannot rule out that the intrinsic high flexibility of Impα3 could be involved in its lack of selectivity towards different stereoisomers, we believe the following: (i) the intrinsic disorder of the isolated NLS peptides (derived from the cargos), as shown by NMR (Figure 1 and Figure 2), and (ii) the fact that the peptides remained disordered upon binding to the importin spe ...

[7] = target: T2, ∆Impα3; conditions: literature value for L-NLS counterpart, ref [5],[6],[7], read-out: Kd (ITC) (L-NLS Peptide); cited from earlier work
Text: (§8) Table 3 Kinetic and thermodynamic parameters of the binding reaction of D-NLS peptides to ∆Impα3 ^a. | column: Kd (μM) (ITC/Fluorescence) (L-NLS Peptide) ^c || We also used ITC to determine the thermodynamic binding parameters in the association of each of the peptides to both importin species (Figure 4). […] For D-NLS-NUPR1L, the values of enthalpy, ∆H, were −2.5 ± 0.2 and −4.5 ± 0.7 kcal mol^−1 for the binding to Impα3 and ∆Impα3, respectively. On the other hand, the values previously ...

[8] = L-NLS counterparts, literature values, ref [5],[6],[7], cited from earlier work
Text: Table 1 Hydrodynamic properties of the D-NLS peptides ^a. | column: D (cm^2 s^−1) × 10^6 (Rh, Å) (L-NLS) ^d

[9] = target: T1, Impα3; conditions: literature value for L-NLS counterpart, ref [5],[6],[7], read-out: Kd (ITC) (L-NLS Peptide); cited from earlier work
Text: as §8, with “Table 2” for “Table 3”, “to Impα3” for “to ∆Impα3”

CC(=O)N[C@H](CCCNC(=N)N)C(=O)N[C@@H](C(=O)N[C@H](CCCNC(=N)N)C(=O)N[C@H](CCCNC(=N)N)C(=O)N[C@H](CCC(=O)O)C(=O)N[C@H](CCC(N)=O)C(=O)N[C@H](C)C(=O)N[C@H](CC(C)C)C(=O)N[C@H](CCCNC(=N)N)C(=O)N[C@@H](C(=O)N[C@H](CC(N)=O)C(=O)N[C@H](Cc1c[nH]c2ccccc12)C(=O)N1CCC[C@@H]1C(=O)N[C@H](C)C(=O)N1CCC[C@@H]1C(=O)NCC(=O)NCC(=O)N[C@H](Cc1c[nH]cn1)C(=O)N[C@H](CCC(=O)O)C(=O)N[C@H](CCCNC(=N)N)C(=O)N[C@H](CCCCN)C(=O)N[C@@H](C(=O)N[C@H](C)C(=O)N[C@H](CCC(N)=O)C(N)=O)C(C)C)[C@H](C)O)[C@H](C)O [D-NLS-NUPR1L] (Ac-[dR][dT][dR][dR][dE][dQ][dA][dL][dR][dT][dN][dW][dP][dA][dP]GG[dH][dE][dR][dK][dV][dA][dQ]-NH2)
enthalpy ∆H [1]: -2.5 ± 0.2 kcal/mol
kon [2]: 51200 ± 700 M⁻¹ s⁻¹
kon ([3]; BLItz, Impα3 immobilized via His-tag (0.25 μM), 10 × kinetics buffer, error from pseudo-first order fit, at least two repeats, read-out: kon): 68000 ± 7000 M⁻¹ s⁻¹
koff ([3]; Impα3 immobilized via His-tag, error from pseudo-first order fit (Equation 5)): 0.069 ± 0.04 s⁻¹
enthalpy ∆H [4]: -4.5 ± 0.7 kcal/mol
Diffusion coefficient D [5]: 2.0 ± 0.3 cm^2 s^−1 × 10^6

DLKVRKAA
Binding, dependence on stereochemistry [6]: binding insensitive to L-/D-stereochemistry has been observed

L-NLS-NUPR1: wild-type isolated NLS region of NUPR1, comprising residues 54 to 74 (TNRPSPGGHERKLVTKLQNSE; UniProt O60356 54-74, looked up, fragment)
Kd [7]: 950 nM
Hydrodynamic radius Rh (L-NLS) ([8]; estimated from Rh of dioxane): 11 ± 1 Å
Diffusion coefficient D (L-NLS) [8]: 1.85 ± 0.04 10^-6 cm^2 s^-1
Kd [9]: 1700 nM
